Data published in patent publication US11566007B2, “Ras inhibitors” (Revolution Medicines, Inc., priority 2019, dated 2023).
“And” between values parts separate entries of the source, which are not always exact repeats. Identical values can stand only once. Like-named read-outs stand apart in the source and are kept apart here.

Tests used:
[1] = system: NCI-H358 cells (K-Ras G12C); assay: Potency assay: pERK in NCI-H358 cells; format: cell-based, human; conditions: Homo sapiens, NCI-H358; H358 KRAS G12C; read-out: pERK EC50
Summary of the method: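 4 h cpd, 37 °C; 10-pt 3-fold series, 10 mM DMSO top stock, duplicates. Readout pERK: AlphaLISA SureFire Ultra or In-Cell Western (IR-800CW secondary, DRAQ5 DNA stain). IC50, 4-PL fit vs log conc.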

[2] = biological target: KRAS G12S (Homo sapiens (Human), UniProt P01116+P62937, G12S); assay: Ras-Raf (BRAF RBD) disruption / FRET / MOA assay, KRAS G12S; format: biochemical; conditions: Ras-Raf disruption/FRET/MOA assay; class symbols; read-out: KRAS G12S FRET data IC50
Summary of the method: (§1)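 Compound-driven ternary complex of nucleotide-loaded Ras with cyclophilin A, disrupting BRAF RBD binding. 10-point 3-fold dilution from 30 μM final, 3 h at 25° C, then anti-His Eu-W1024 (10 nM) and anti-GST allophycocyanin (50 nM) for 1.5 h. IC50 from TR-FRET ratio decrease versus DMSO.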

[3] = biological target: KRAS G13D (Homo sapiens (Human), UniProt P01116+P62937, G13D); assay: Ras-Raf (BRAF RBD) disruption / FRET / MOA assay, KRAS G13D; format: biochemical; conditions: read-out: IC50* KRAS G13D FRET data
Summary of the method: as §1

[4] = biological target: KRAS G12D (Homo sapiens (Human), UniProt P01116+P62937, G12D); assay: Ras-Raf (BRAF RBD) disruption / FRET / MOA assay, KRAS G12D; format: biochemical; conditions: Ras-Raf disruption/FRET/MOA assay; class symbols; read-out: KRAS G12D FRET data IC50
Summary of the method: as §1

[5] = biological target: KRAS WT (Homo sapiens (Human), UniProt P01116+P62937); assay: Ras-Raf (BRAF RBD) disruption / FRET / MOA assay, KRAS WT; format: biochemical; conditions: read-out: IC50* KRAS WT FRET data
Summary of the method: as §1

[6] = biological target: K-Ras G13C (Homo sapiens (Human), UniProt P01116+P62937, G13C); assay: Ras-Raf (BRAF RBD) disruption / FRET / MOA assay, KRAS G13C; format: biochemical; conditions: KRAS G13C; Ras-Raf disruption/FRET/MOA assay; read-out: IC50* KRAS G13C FRET data
Summary of the method: as §1

[7] = system: NCI-H358 (K-Ras G12C); assay: CellTiter-Glo cell viability assay, NCI-H358; format: cell-based, human; conditions: Homo sapiens, NCI-H358, 120 h, class symbols
Summary of the method: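 Viability of K-Ras mutant lines is measured by ATP luminescence after five days of compound treatment. Percent of DMSO control is calculated and dose-response data are fitted with a four-parameter logistic equation.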

[8] = biological target: K-Ras G12C (Homo sapiens (Human), UniProt P01116+P62937, G12C); assay: Ras-Raf (BRAF RBD) disruption / FRET / MOA assay, KRAS G12C; format: biochemical; conditions: KRAS G12C; Ras-Raf disruption/FRET/MOA assay; read-out: IC50* KRAS G12C FRET data
Summary of the method: as §1

[9] = biological target: KRAS G12V (Homo sapiens (Human), UniProt P01116+P62937, G12V); assay: Ras-Raf (BRAF RBD) disruption / FRET / MOA assay, KRAS G12V; format: biochemical; conditions: read-out: IC50* KRAS G12V FRET data
Summary of the method: as §1

[10] = biological target: NRAS G12C (Homo sapiens (Human), UniProt P01111+P62937, G12C); assay: Ras-Raf (BRAF RBD) disruption / FRET / MOA assay, NRAS G12C; format: biochemical; conditions: read-out: IC50* NRAS G12C FRET data
Summary of the method: as §1

[11] = NCI-H358, 5-day treatment, read-out: Additional H358 Cell Viability assay data (K-Ras G12C, IC50)

Sequence of KRAS G12S (P01116-2 other isoform, or with tags, fused parts or gaps G12S): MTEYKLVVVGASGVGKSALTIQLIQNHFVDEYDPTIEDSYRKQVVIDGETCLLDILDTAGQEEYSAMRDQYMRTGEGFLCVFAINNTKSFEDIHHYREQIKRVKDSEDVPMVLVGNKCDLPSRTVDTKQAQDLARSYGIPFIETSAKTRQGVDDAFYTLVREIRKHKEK
Sequence of KRAS G12S (P62937 whole entry): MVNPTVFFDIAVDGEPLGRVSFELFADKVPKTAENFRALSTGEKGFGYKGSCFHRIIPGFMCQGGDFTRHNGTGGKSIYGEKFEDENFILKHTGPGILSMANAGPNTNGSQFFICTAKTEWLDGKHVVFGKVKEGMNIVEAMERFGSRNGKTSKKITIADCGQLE
Sequence of KRAS WT (P01116-2 other isoform, or with tags, fused parts or gaps): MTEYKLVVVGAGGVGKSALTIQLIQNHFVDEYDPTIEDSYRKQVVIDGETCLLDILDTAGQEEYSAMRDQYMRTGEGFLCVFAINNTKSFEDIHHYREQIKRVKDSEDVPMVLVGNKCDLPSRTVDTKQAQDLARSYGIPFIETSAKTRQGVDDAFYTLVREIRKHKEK
Sequence of KRAS WT (P62937 whole entry): as the sequence (P62937 whole entry) above
Sequence of KRAS G12D (P01116-2 other isoform, or with tags, fused parts or gaps G12D): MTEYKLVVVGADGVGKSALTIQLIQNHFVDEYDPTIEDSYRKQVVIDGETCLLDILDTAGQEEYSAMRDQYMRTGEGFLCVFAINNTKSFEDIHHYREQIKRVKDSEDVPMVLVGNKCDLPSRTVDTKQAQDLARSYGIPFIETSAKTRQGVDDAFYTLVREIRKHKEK
Sequence of KRAS G12D (P62937 whole entry): as the sequence (P62937 whole entry) above
Sequence of KRAS G13D (P01116-2 other isoform, or with tags, fused parts or gaps G13D): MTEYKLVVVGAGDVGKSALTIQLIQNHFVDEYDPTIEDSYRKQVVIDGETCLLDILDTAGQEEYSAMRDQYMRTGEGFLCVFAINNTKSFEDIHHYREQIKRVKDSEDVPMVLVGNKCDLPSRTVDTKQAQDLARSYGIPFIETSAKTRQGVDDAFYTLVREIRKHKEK
Sequence of KRAS G13D (P62937 whole entry): as the sequence (P62937 whole entry) above
Sequence of K-Ras G13C (P01116-2 other isoform, or with tags, fused parts or gaps G13C): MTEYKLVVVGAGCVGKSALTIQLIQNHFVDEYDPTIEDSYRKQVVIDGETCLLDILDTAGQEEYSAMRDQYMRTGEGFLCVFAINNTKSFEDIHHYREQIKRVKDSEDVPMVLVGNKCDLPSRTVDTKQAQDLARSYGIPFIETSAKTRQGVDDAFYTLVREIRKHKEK
Sequence of K-Ras G13C (P62937 whole entry): as the sequence (P62937 whole entry) above
Sequence of KRAS G12V (P01116-2 other isoform, or with tags, fused parts or gaps G12V): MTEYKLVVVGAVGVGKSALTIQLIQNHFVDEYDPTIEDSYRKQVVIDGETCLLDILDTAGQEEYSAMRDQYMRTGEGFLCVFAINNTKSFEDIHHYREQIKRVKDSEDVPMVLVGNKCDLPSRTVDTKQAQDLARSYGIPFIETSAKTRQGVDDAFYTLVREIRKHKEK
Sequence of KRAS G12V (P62937 whole entry): as the sequence (P62937 whole entry) above
Sequence of NRAS G12C (P01111 whole entry G12C): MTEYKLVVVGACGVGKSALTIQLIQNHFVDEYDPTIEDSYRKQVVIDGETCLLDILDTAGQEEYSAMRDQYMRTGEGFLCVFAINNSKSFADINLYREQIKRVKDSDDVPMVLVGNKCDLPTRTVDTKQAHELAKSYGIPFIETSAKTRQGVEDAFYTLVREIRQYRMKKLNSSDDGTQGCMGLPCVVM
Sequence of NRAS G12C (P62937 whole entry): as the sequence (P62937 whole entry) above
Sequence of K-Ras G12C (P01116-2 other isoform, or with tags, fused parts or gaps G12C): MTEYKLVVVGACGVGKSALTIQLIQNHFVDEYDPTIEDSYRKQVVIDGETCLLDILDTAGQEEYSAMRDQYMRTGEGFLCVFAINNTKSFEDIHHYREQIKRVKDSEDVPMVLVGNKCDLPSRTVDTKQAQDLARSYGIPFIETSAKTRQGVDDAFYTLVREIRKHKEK
Sequence of K-Ras G12C (P62937 whole entry): as the sequence (P62937 whole entry) above

Compound	EC50 [1]	IC50 [2]	IC50 [3]	IC50 [4]	IC50 [5]	IC50 [6]	IC50 [7, 11]	IC50 [8]	IC50 [9]	IC50 [10]	IC50 ([7]; read-out: Additional H358 Cell Viability assay data (K-Ras G12C, IC50, uM), NCI-H358, 5-day treatment)
C=CC(=O)N1CC[C@H](C(=O)N(C)[C@H](C(=O)N[C@H]2Cc3cc(O)cc(c3)-c3ccc4c(c3)c(c(-c3cncnc3)n4CC)CC(C)(C)COC(=O)[C@@H]3CCCN(N3)C2=O)C(C)C)O1 [Example A180]	< 5000 nM	1000 to 10000 nM	1000 to 10000 nM	1000 to 10000 nM	100 to 1000 nM	100 to 1000 nM	> 1 µM	100 to 1000 nM	100 to 1000 nM	100 to 1000 nM	–
C=CC(=O)N1C[C@@H](F)[C@](F)(C(=O)N(C)[C@H](C(=O)N[C@H]2Cc3cccc(c3)-c3ccc4c(c3)c(c(-c3cccnc3[C@H](C)OC)n4CC)CC(C)(C)COC(=O)[C@@H]3CCCN(N3)C2=O)C(C)C)C1 (atropisomer, axis not shown) [Example A396]	< 5000 nM	1000 to 10000 nM	1000 to 10000 nM	1000 to 10000 nM	1000 to 10000 nM	10 to 100 nM	< 0.01 µM	10 to 100 nM	1000 to 10000 nM	10 to 100 nM	–
C=CC(=O)N1CCCN(C(=O)N(C)[C@H](C(=O)N[C@H]2Cc3cc(O)cc(c3)-c3ccc4c(c3)c(c(-c3cccnc3[C@H](C)OC)n4CC)CC(C)(C)COC(=O)[C@@H]3CCCN(N3)C2=O)C(C)C)CC1 (atropisomer, axis not shown) [Example A265]	< 5000 nM	10 to 100 nM	10 to 100 nM	10 to 100 nM	10 to 100 nM	10 to 100 nM	0.01 to 0.1 µM	10 to 100 nM	10 to 100 nM	10 to 100 nM	–
C=CC(=O)N1CC[C@H](C(=O)N(C)[C@H](C(=O)NN2Cc3cc(O)cc(c3)-c3ccc4c(c3)c(c(-c3cccnc3[C@H](C)OC)n4CC)CC(C)(C)COC(=O)[C@@H]3CCCN(N3)C2=O)C(C)C)C1 (atropisomer, axis not shown) [Example A233]	< 5000 nM	10 to 100 nM	100 to 1000 nM	100 to 1000 nM	10 to 100 nM	10 to 100 nM	0.01 to 0.1 µM	10 to 100 nM	10 to 100 nM	10 to 100 nM	–
C=CC(=O)N1C2CC1CN(C(=O)N(C)[C@H](C(=O)N[C@H]1Cc3nc(cs3)-c3ccc4c(c3)c(c(-c3cccnc3[C@H](C)OC)n4CC)CC(C)(C)COC(=O)[C@@H]3CCCN(N3)C1=O)C(C)C)C2 [Example A408]	< 5000 nM	100 to 1000 nM	1000 to 10000 nM	1000 to 10000 nM	100 to 1000 nM	100 to 1000 nM	–	100 to 1000 nM	100 to 1000 nM	100 to 1000 nM	0.01 to 0.1 µM
C=CS(=O)(=O)N1CC[C@H](C(=O)N(C)[C@H](C(=O)N[C@H]2Cc3cc(O)cc(c3)-c3ccc4c(c3)c(c(-c3cccnc3[C@H](C)OC)n4CC)CC(C)(C)COC(=O)[C@@H]3CCCN(N3)C2=O)C(C)C)C1 (atropisomer, axis not shown) [Example A132]	< 5000 nM	100 to 1000 nM and 1000 to 10000 nM	100 to 1000 nM and 1000 to 10000 nM	1000 to 10000 nM and > 10000 nM	1000 to 10000 nM and 10 to 100 nM	10 to 100 nM and < 10 nM	0.01 to 0.1 µM	10 to 100 nM and < 10 nM	1000 to 10000 nM and 10 to 100 nM	10 to 100 nM and < 10 nM	–
CCn1c(-c2cccnc2[C@H](C)OC)c2c3cc(ccc31)-c1cc(O)cc(c1)C[C@H](NC(=O)[C@H](C(C)C)N(C)C(=O)N1CCN(C(=O)/C=C/CN(C)C)CC1)C(=O)N1CCC[C@H](N1)C(=O)OCC(C)(C)C2 (atropisomer, axis not shown) [Example A263]	< 5000 nM	100 to 1000 nM	10 to 100 nM	100 to 1000 nM	10 to 100 nM	10 to 100 nM	0.1 to 1 µM	10 to 100 nM	100 to 1000 nM	10 to 100 nM	–
